Results as given in article PMC10480161, “Identification of potent and selective N-myristoyltransferase inhibitors of Plasmodium vivax liver stage hypnozoites and schizonts” (Nature Communications, 2023).
Values joined by “and” are separate entries in the source; they are usually repeats but may differ in a detail not shown here. Equal entries are not always repeated.

Legend:
P. vivax schizonts = test: P. vivax liver stage assay, schizonts; format: cell-based, Plasmodium vivax; details: for Number of liverstage Schizonts per well: 20 µM, 8 dpi; for IC50: Plasmodium vivax, Hepatocyte, 120 h, primary human hepatocytes, treatment day 5 to 8 post-infection, isolates 2 and 3
Method: We next evaluated the candidate compounds against liver-stage P. vivax (Fig. 5). P. vivax sporozoites were obtained from three independent patient isolates and cultured in primary human hepatocytes from a single donor lot using a 384-well microculture system as described previously. Cells were infected and treated with NMTis at 20 µM beginning day 5 post-infection until day 8 when the infection rates were quantified by fluorescent microscopy.
Accordingly, we applied dose–response curves of all the tested NMTs on parasite isolates 2 and 3 over concentrations up to 20 µM (Fig. 5c, d, Source Data file). We observed similar kinetics for all inhibitors, with a gradual decrease in parasite load upon increasing the drug concentration. […] Nuclei were counted in each well using DAPI staining as a measure of toxicity (Supplementary Fig. 86, Supplementary Source data). We used the phosphatidylinositol 4-kinase inhibitor (PI4Ki), MMV390048, as a positive control for eliminating schizonts[37],[38].
(§1) Plasmodium vivax liver stage assays were performed as described previously. Cryopreserved primary human hepatocytes (Cat No. F00995-P) and hepatocyte culture medium (HCM) (InVitroGroTM CP Medium) were obtained from Bioreclamation IVT, Inc., (Baltimore, MD, USA). Briefly, we seeded 384-well plates with primary hepatocytes from a single donor lot at a density of 25,000 cells per well. We then infected the hepatocytes with 14,000 freshly hand-dissected sporozoites per well. Cells were exposed to the compounds at indicated concentrations from day 5 post-infection. We used Pi4K inhibitor MMV390048, at 20 µM, as a positive control to eliminate P. vivax liver schizonts. We then proceeded to feed cultures every day, replacing the compounds until day 8 post-infection. Cells were fixed with 4% PFA, permeabilized with 1% Triton X-100, blocked with 2% BSA, and stained with DAPI and PvUIS4 antibodies to detect schizonts and hypnozoites forms by confocal microscopy. For antibody dilutions, PvUIS4 (kind gift from Dr. Noah Sather, Seattle Children’s Research Institute) was diluted 1:250 and the secondary antibody was anti-mouse AlexaFluor-594 (Cat # A-11005; RRID: AB_2534073) diluted 1:1000. DAPI was diluted 1:2000. The images were processed, analyzed and outlier cells were removed using IMARIS (Bitplane Inc.) image analysis software.

HepG2 cells = test: HepG2 cytotoxicity assay (Live/Dead staining); details: replicates
Method: Therefore, we assessed cytotoxicity in the human hepatoma HepG2 cell line. We required a PvNMT to HsNMT SI > 20 for further screening. HepG2 cells were exposed to the compounds at concentrations ranging from 1 to 20 µM for […], and toxicity was assessed via live-dead staining.
The viability of the HepG2 cell line following exposure to the compounds was determined by a Live/Dead cell assay kit (Invitrogen). Briefly, cells were added to a 96-well plate at a concentration of 5000 cells per well, excluding the exterior wells. Cells were exposed to the compounds at different concentrations ranging from 1 to 20 µM. Cells were washed every 24 h and supplemented with fresh doses of compounds. At 72 h post-treatment, 1 µM calcein-AM and 1 µM ethidium homodimer were added to the wells and incubated for 10 min at 37 °C. After washing with PBS, the cells were visualized with fluorescent microscopy (Keyence BZ-X700).

[1] = test system: primary human hepatocytes; test: Nuclear counts (DAPI) in P. vivax-infected primary hepatocytes as measure of toxicity; format: cell-based; details: two technical replicates
Method: Accordingly, we applied dose–response curves of all the tested NMTs on parasite isolates 2 and 3 over concentrations up to 20 µM (Fig. 5c, d, Source Data file). […] Nuclei were counted in each well using DAPI staining as a measure of toxicity (Supplementary Fig. 86, Supplementary Source data). We used the phosphatidylinositol 4-kinase inhibitor (PI4Ki), MMV390048, as a positive control for eliminating schizonts[37],[38].
as §1, with “For antibody dilutions, PvUIS4 (kind gift from Dr. Noah Sather, Seattle Children’s Research Institute) was diluted 1:250 and the secondary antibody was anti-mouse AlexaFluor-594 (Cat # A-11005; RRID: AB_2534073) diluted 1:1000.” left out
Supplementary Fig. 86. […] Nuclear […]
counts, normalized to DMSO controls, for NMT inhibitors across a dose response. Counts were ob-tained using DAPI staining from the P. vivax-infected wells quantified in Fig. 5d. Error bars represent the standard deviation of two technical replicates.
(1 picture or pasted object on this page, not shown here)

P. vivax hypnozoites = test: P. vivax liver stage assay, hypnozoites; format: cell-based, Plasmodium vivax; details: for Hypnozoites per well: Isolate 2, replicate wells (Figure 6d); for Number of liverstage hypnozoites per well: 20 µM, 8 dpi; for IC50: Plasmodium vivax, Hepatocyte, 120 h, primary human hepatocytes, treatment day 5 to 8 post-infection, isolate 2
Method: Finally, we evaluated the NMT-binding compounds against non-developing P. vivax hypnozoites. […] (Fig. 6A). […] We, therefore, evaluated the impact of all tested compounds on P. vivax hypnozoites using these two isolates.
as §1

[2] = isolate 1, technical replicates (Fig. 5b)
[3] = isolate 2, technical replicates (Fig. 5b)
[4] = isolate 3, technical replicates (Fig. 5b)
[5] = isolate 1, technical replicates (Fig. 6C)
[6] = isolate 2, technical replicates (Fig. 6C)
[7] = isolate 3, technical replicates (Fig. 6C)

Structure (SMILES)	Number of liverstage Schizonts per well (P. vivax schizonts; [2])	Number of liverstage Schizonts per well (P. vivax schizonts; [3])	Number of liverstage Schizonts per well (P. vivax schizonts; [4])	Schizonts per well (P. vivax schizonts; Isolate 2, 1.25 uM)	Schizonts per well (P. vivax schizonts; Isolate 2, 2.5 uM)	Schizonts per well (P. vivax schizonts; Isolate 2, 5 uM)	Schizonts per well (P. vivax schizonts; Isolate 3, 1.25 uM)	Schizonts per well (P. vivax schizonts; Isolate 3, 2.5 uM)	Schizonts per well (P. vivax schizonts; Isolate 3, 5 uM)	Schizonts per well (P. vivax schizonts; Isolate 3, 10 uM)	IC50 (P. vivax schizonts)	schizonts (fold change to DMSO) mean diff (P. vivax schizonts; isolate 1, 20 µM)	schizonts (fold change to DMSO) mean diff (P. vivax schizonts; isolate 2, 20 µM)	schizonts (fold change to DMSO) mean diff (P. vivax schizonts; isolate 3, 20 µM)	Percentage of live HepG2 cells compared with diluent controls (HepG2 cells; 1 μM)	Percentage of live HepG2 cells compared with diluent controls (HepG2 cells; 2.5 μM)	Percentage of live HepG2 cells compared with diluent controls (HepG2 cells; 5 μM)	Percentage of live HepG2 cells compared with diluent controls (HepG2 cells; 10 μM)	Percentage of live HepG2 cells compared with diluent controls (HepG2 cells; 20 μM)	Nucleus counts per well ([1]; 1 uM)	also measured
Cc1nn(C)c(C)c1CCOc1ccccc1-c1cccc(OCCN(C)C)c1 [Compound 26b]	0 per well (2×) and 5 per well	3 per well and 4 per well and 0 per well	3 per well and 8 per well	12 per well and 19 per well and 15 per well	9 per well and 7 per well and 12 per well	10 per well and 8 per well and 6 per well	11 per well and 13 per well	9 per well and 12 per well	8 per well and 12 per well	6 per well and 11 per well	3.1 to 4.1 µM	0.917	0.8679	0.625	97.4196% and 92.7163%	92.7942% and 91.1312%	90.5335% and 86.8176%	83.2575% and 84.0111%	77.3069% and 77.3588%	14910 per well and 16840 per well	Schizonts per well (P. vivax schizonts; Isolate 2, 10 uM): 7 per well and 4 per well and 5 per well; Nucleus counts per well ([1]; 2.5uM): 13670 per well and 14610 per well; Nucleus counts per well ([1]; 5 uM): 13920 per well and 13020 per well; Nucleus counts per well ([1]; 10uM): 12600 per well and 13580 per well; Nucleus counts per well ([1]; 20uM, P. vivax-infected wells): 11600 per well and 12490 per well; Hypnozoites per well (P. vivax hypnozoites; 1.25 uM): 10 and 6 and 12; Hypnozoites per well (P. vivax hypnozoites; 2.5 uM): 4 and 8 and 7; Hypnozoites per well (P. vivax hypnozoites; 5 uM): 7 and 5 and 9; Hypnozoites per well (P. vivax hypnozoites; 10 uM): 4 (2×) and 0; Number of liverstage hypnozoites per well (P. vivax hypnozoites; [5]): 1 per well (2×) and 2 per well; Number of liverstage hypnozoites per well (P. vivax hypnozoites; [6]): 3 per well and 1 per well and 2 per well; Number of liverstage hypnozoites per well (P. vivax hypnozoites; [7]): 0 per well; Hypnozoites per well (P. vivax hypnozoites; 20 uM): 3 and 1 and 2; IC50 (P. vivax hypnozoites): 4.6 µM; hypnozoites (fold change to DMSO) mean diff (P. vivax hypnozoites; isolate 1, 20 µM): 0.908; hypnozoites (fold change to DMSO) mean diff (P. vivax hypnozoites; isolate 2, 20 µM): 0.793
c1cncc(CCOc2ccccc2-c2ccnc(N3CCNCC3)c2)c1 [Compound 12j]	0 per well (2×) and 1 per well	2 per well and 0 per well and 1 per well	4 per well and 3 per well	15 per well and 18 per well and 14 per well	13 per well and 11 per well	11 per well and 12 per well and 13 per well	11 per well and 19 per well	12 per well and 16 per well	8 per well and 11 per well	6 per well and 9 per well	4.9 to 6 µM	0.983	0.9434	0.7614	85.5703% and 82.8678%	74.0847% and 82.3481%	81.2567% and 75.202%	74.4485% and 73.0193%	72.4216% and 71.8759%	16280 per well and 14580 per well	Schizonts per well (P. vivax schizonts; Isolate 3, 20 uM (Fig. 5c-d)): 4 per well and 3 per well; Nucleus counts per well ([1]; 2.5uM): 10950 per well and 12190 per well; Nucleus counts per well ([1]; 5 uM): 11170 per well and 12350 per well; Nucleus counts per well ([1]; 10uM): 12430 per well and 11110 per well; Nucleus counts per well ([1]; 20uM, P. vivax-infected wells): 10860 per well and 12840 per well; Hypnozoites per well (P. vivax hypnozoites; 1.25 uM): 9 and 6 and 12; Hypnozoites per well (P. vivax hypnozoites; 2.5 uM): 13 and 12 and 8; Hypnozoites per well (P. vivax hypnozoites; 5 uM): 19 and 3 and 13; Hypnozoites per well (P. vivax hypnozoites; 10 uM): 13 and 10; Number of liverstage hypnozoites per well (P. vivax hypnozoites; [5]): 0 per well (2×) and 3 per well; Number of liverstage hypnozoites per well (P. vivax hypnozoites; [6]): 0 per well (2×) and 3 per well; Number of liverstage hypnozoites per well (P. vivax hypnozoites; [7]): 0 per well; Hypnozoites per well (P. vivax hypnozoites; 20 uM): 0 (2×) and 3; IC50 (P. vivax hypnozoites): 12 µM; hypnozoites (fold change to DMSO) mean diff (P. vivax hypnozoites; isolate 1, 20 µM): 0.985; hypnozoites (fold change to DMSO) mean diff (P. vivax hypnozoites; isolate 2, 20 µM): 0.897
